Reference: ChEMBL document CHEMBL4229478, “Synthesis, Characterization, and Biological Evaluation of a Porphyrin-Based Photosensitizer and Its Isomer for Effective Photodynamic Therapy against Breast Cancer” (J Med Chem, 2018)
Calls of active or inactive are those of the source. The rule behind the calls is not given here.

Columns and labels:
Mus musculus [1] = experiment: Toxicity in BALB/c mouse xenografted with mouse 4T1 cells assessed as effect on body weight at 2 mg/kg, iv pre-tretaed for 24 hrs followed by 50 J/cm2 light irradiation and measured at day 22 post dose; assay type: organism-based; conditions: in vivo
4T1 [2] = experiment: Antitumor activity against mouse 4T1 cells xenografted in BALB/c mouse assessed as inhibition of tumor volume at 4 mg/kg, iv pretreated for 24 hrs followed by 50 J/cm2 light irradiation and measured at day 22 post dose relative to control; assay type: functional; conditions: 4T1, light or radiation study
Mus musculus [3] = experiment: Toxicity in BALB/c mouse xenografted with mouse 4T1 cells assessed as pathological changes in lung at 4 mg/kg, iv measured at day 22 post dose by hematoxylin and eosin staining based light microscopic analysis; assay type: organism-based; conditions: in vivo
4T1 [4] = experiment: Antitumor activity against mouse 4T1 cells xenografted in BALB/c mouse assessed as induction of tissue destruction with large spaces at 4 mg/kg, iv pretreated for 24 hrs followed by 50 J/cm2 light irradiation by hematoxylin and eosin staining based light microscopic analysis; assay type: functional, organism-based
MCF7 = experiment: Phototoxicity against human MCF7 cells assessed as cell viability at 0.5 uM preincubated for 4 hrs followed by 0.5 to 2 J/cm2 light irradiation and measured after 24 hrs by MTT assay; assay type: functional, cell-based
4T1 [5] = experiment: Antitumor activity against mouse 4T1 cells xenografted in BALB/c mouse assessed as inhibition of tumor weight at 1 to 4 mg/kg, iv pretreated for 24 hrs followed by 50 J/cm2 light irradiation and measured at day 22 post last dose; assay type: functional, organism-based
4T1 [6] = experiment: Phototoxicity against mouse 4T1 cells assessed as cell viability at 0.5 uM preincubated for 4 hrs followed by 1 J/cm2 light irradiation and measured after 24 hrs by MTT assay relative to control; assay type: functional; conditions: 4T1, light or radiation study, read-out: Activity
Mus musculus [7] = experiment: Toxicity in BALB/c mouse xenografted with mouse 4T1 cells assessed as effect on body weight at 4 mg/kg, iv measured at day 22 post last dose; assay type: organism-based; conditions: in vivo
MDA-MB-231 [8] = experiment: Induction of apoptosis in human MDA-MB-231 cells assessed as late apoptotic cells after 24 hrs upon light irradiation by Annexin-V FITC/propidium iodide staining based flow cytometric analysis (reference value: 1.28%); assay type: functional
Mus musculus [9] = experiment: Toxicity in BALB/c mouse xenografted with mouse 4T1 cells assessed as effect on body weight at 1 mg/kg, iv pre-tretaed for 24 hrs followed by 50 J/cm2 light irradiation and measured at day 22 post dose; assay type: organism-based; conditions: in vivo
[10] = Induction of apoptosis in human MDA-MB-231 cells assessed as viable cells after 24 hrs by Annexin-V FITC/propidium iodide staining based flow cytometric analysis (reference value: 93.27%); assay type: cell-based; conditions: read-out: Activity
[11] = Selectivity index, ratio of dark toxicity against human MCF7 at 0.5 uM cells to phototoxicity against human MCF7 cells at 0.5 uM; assay type: cell-based; conditions: read-out: Selectivity Index
[12] = Dark toxicity against mouse 4T1 cells assessed as cell viability at 0.5 uM after 24 hrs by MTT assay; assay type: cell-based; conditions: 4t1, 24 h
MDA-MB-231 [13] = experiment: Induction of apoptosis in human MDA-MB-231 cells assessed as viable cells after 24 hrs upon light irradiation by Annexin-V FITC/propidium iodide staining based flow cytometric analysis (reference value: 93.27%); assay type: functional
[14] = Dark toxicity against human MCF7 cells assessed as cell viability at 0.5 uM after 24 hrs by MTT assay; assay type: cell-based; conditions: mcf7, 24 h
[15] = Tmax in tumor of BALB/c mouse xenografted with mouse 4T1 cells at 10 mg/kg, iv measured after […] by fluorescence assay; assay type: ADME, organism-based, Neoplasm
[16] = Drug uptake in lysosome of human MDA-MB-231 cells at 10 uM after 4 hrs by Lyso tracker green-based confocal laser scanning microscopic analysis; assay type: ADME, subcellular; conditions: mda-mb-231, 4 h
[17] = Drug uptake in endoplasmic reticulum of human MDA-MB-231 cells at 10 uM after 4 hrs by ER tracker green-based confocal laser scanning microscopic analysis; assay type: ADME, subcellular; conditions: mda-mb-231, 4 h
MDA-MB-231 [18] = experiment: Induction of apoptosis in human MDA-MB-231 cells assessed as late apoptotic cells after 24 hrs by Annexin-V FITC/propidium iodide staining based flow cytometric analysis (reference value: 1.28%); assay type: cell-based; conditions: mda-mb-231, 24 h
4T1 [19] = experiment: Induction of apoptosis in mouse 4T1 cells xenografted in BALB/c mouse at 4 mg/kg, iv pretreated for 24 hrs followed by 50 J/cm2 light irradiation by TUNEL assay; assay type: functional, organism-based
[20] = Induction of singlet oxygen generation in cell free condition upon 635 nm semiconductor laser light irradiation by singlet oxygen sensor green dye based fluorescence spectrophotometeric analysis; assay type: functional
MDA-MB-231 [21] = experiment: Induction of ROS generation in human MDA-MB-231 cells incubated with DCF-DA probe for 30 mins prior to ROS scavenger NAC addition 1 hr before 2 J/cm2 light irradiation and measured after 1 hr post irradiation by flow cytometric analysis; assay type: functional, cell-based
[22] = Drug uptake in tumor of BALB/c mouse xenografted with mouse 4T1 cells at 10 mg/kg, iv measured at 12 hrs post injection by IVIS spectrum imaging; assay type: ADME, organism-based, Neoplasm; conditions: in vivo
4T1 [23] = experiment: Antitumor activity against mouse 4T1 cells xenografted in BALB/c mouse assessed as inhibition of tumor volume at 2 mg/kg, iv pretreated for 24 hrs followed by 50 J/cm2 light irradiation and measured at day 22 post dose relative to control; assay type: functional; conditions: 4T1, light or radiation study
Mus musculus [24] = experiment: Nephrotoxicity in BALB/c mouse xenografted with mouse 4T1 cells assessed as pathological changes in kidney at 1 to 4 mg/kg, iv pre-tretaed for 24 hrs followed by 50 J/cm2 light irradiation and measured at day 22 post dose by hematoxylin and eosin staining based light microscopic analysis; assay type: toxicity, organism-based; conditions: in vivo
Mus musculus [25] = experiment: Hepatotoxicity in BALB/c mouse xenografted with mouse 4T1 cells assessed as pathological changes in liver at 4 mg/kg, iv measured at day 22 post dose by hematoxylin and eosin staining based light microscopic analysis; assay type: toxicity, organism-based; conditions: in vivo
MDA-MB-231 [26] = experiment: Phototoxicity against human MDA-MB-231 cells assessed as cell viability incubated with ROS scavenger NAC 1 hr before 2 J/cm2 light irradiation by MTT assay relative to control; assay type: functional
Mus musculus [27] = experiment: Nephrotoxicity in BALB/c mouse xenografted with mouse 4T1 cells assessed as pathological changes in kidney at 4 mg/kg, iv measured at day 22 post dose by hematoxylin and eosin staining based light microscopic analysis; assay type: toxicity, organism-based; conditions: in vivo
MDA-MB-231 [28] = experiment: Induction of apoptosis in human MDA-MB-231 cells assessed as necrotic cells after 24 hrs by Annexin-V FITC/propidium iodide staining based flow cytometric analysis (reference value: 4.24%); assay type: cell-based; conditions: mda-mb-231, 24 h
[29] = Dark toxicity against human MDA-MB-231 cells assessed as cell viability at 0.5 uM after 24 hrs by MTT assay; assay type: cell-based; conditions: mda-mb-231, 24 h
[30] = Drug uptake in human MDA-MB-231 cells at 5 uM by flow cytometric analysis; assay type: ADME, cell-based; conditions: mda-mb-231, 5 µM, TDE = time-dependent effect
[31] = Selectivity index, ratio of dark toxicity against human MDA-MB-231 cells at 0.5 uM to phototoxicity against human MDA-MB-231 cells at 0.5 uM; assay type: cell-based; conditions: read-out: Selectivity Index
Mus musculus [32] = experiment: Toxicity in BALB/c mouse xenografted with mouse 4T1 cells assessed as effect on body weight at 4 mg/kg, iv pre-tretaed for 24 hrs followed by 50 J/cm2 light irradiation and measured at day 22 post dose; assay type: organism-based; conditions: in vivo

| SMILES | Activity (Mus musculus [1]) | inhibition in vivo at 4 mg/kg (4T1 [2]) [%] | Activity (Mus musculus [3]) | Activity (4T1 [4]) | Activity (MCF7) | inhibition (4T1 [5]) | viability at 0.5 µM (4T1 [6]) [%] | Activity (Mus musculus [7]) | Activity (MDA-MB-231 [8]) [%] | Activity (Mus musculus [9]) | viability at 24 h [10] [%] | selectivity ratio at 0.5 µM [11] | Activity [12] | Activity (MDA-MB-231 [13]) [%] | Activity [14] | Tmax [15] [h] | Drug uptake [16] | Drug uptake [17] | Activity (MDA-MB-231 [18]) [%] | Activity (4T1 [19]) | further results |
| --- | --- | --- | --- | --- | --- | --- | --- | --- | --- | --- | --- | --- | --- | --- | --- | --- | --- | --- | --- | --- | --- |
| C=CC1=C(C)c2cc3[nH]c(cc4nc(cc5[nH]c(cc1n2)c(C)c5CCC(=O)[O-])C(CCC(=O)[O-])=C4C)c(C)c3C(C)OCCCCCC.[Na+].[Na+] (stereo unspecified) | Non-Toxic | 45.4 | Non-Toxic | Active | Active | Active | 76.1 | Non-Toxic | 40.09 | Non-Toxic | 92.8 | 24.2 | Non-Toxic | 41.63 | Non-Toxic | 12 | Active | Active | 2.73 | Active | Activity [20]: Dose-dependent effect; Activity (MDA-MB-231 [21]): inactive; Drug uptake [22]: Active; inhibition in vivo at 2 mg/kg (4T1 [23]): 28%; Activity (Mus musculus [24]): Non-Toxic; Activity (Mus musculus [25]): Non-Toxic; Activity (MDA-MB-231 [26]): >80%; Activity (Mus musculus [27]): Non-Toxic; Activity (MDA-MB-231 [28]): 0.4%; Activity [29]: Non-Toxic; Drug uptake [30]: Tde; selectivity ratio at 0.5 µM [31]: 59.6; Activity (Mus musculus [32]): Non-Toxic |
| C=Cc1c(C)c2cc3nc(cc4[nH]c(cc5nc(cc1[nH]2)C(C)=C5C(C)OCCCCCC)c(C)c4CCC(=O)[O-])C(CCC(=O)[O-])=C3C.[Na+].[Na+] (stereo unspecified) | Non-Toxic | 65.4 | Non-Toxic | Active | Active | Active | 61.7 | Non-Toxic | 53.54 | Non-Toxic | 93.4 | 90.8 | Non-Toxic | 32.52 | Non-Toxic | 12 | Active | Active | 2.34 | Active | Activity [20]: Dose-dependent effect; Activity (MDA-MB-231 [21]): inactive; Drug uptake [22]: Active; inhibition in vivo at 2 mg/kg (4T1 [23]): 43%; Activity (Mus musculus [24]): Non-Toxic; Activity (Mus musculus [25]): Non-Toxic; Activity (MDA-MB-231 [26]): >80%; Activity (Mus musculus [27]): Non-Toxic; Activity (MDA-MB-231 [28]): 0.58%; Activity [29]: Non-Toxic; Drug uptake [30]: Tde; selectivity ratio at 0.5 µM [31]: 161; Activity (Mus musculus [32]): Non-Toxic |
